# Laboratory results from ChEMBL document CHEMBL2440076, “New triarylpyrazoles as broad-spectrum anticancer agents: design, synthesis, and biological evaluation” (Eur J Med Chem, 2013).
# Experiments:
# [1] = test system: NCI-H226; test: Growth inhibition of human NCI-H226 cells after 48 hrs by sulforhodamine B assay; format: functional; conditions: NCI-H226, 48 h
# [2] = test system: A498; test: Growth inhibition of human A498 cells assessed as cell growth at 10 uM after 48 hrs by sulforhodamine B assay; format: functional; conditions: A498, 48 h, read-out: Activity
# [3] = test system: SF-539; test: Growth inhibition of human SF539 cells assessed as cell growth at 10 uM after 48 hrs by sulforhodamine B assay; format: functional; conditions: SF-539, 48 h, read-out: Activity
# [4] = test system: RPMI-8226; test: Growth inhibition of human RPMI8226 cells assessed as cell growth at 10 uM after 48 hrs by sulforhodamine B assay; format: functional; conditions: RPMI-8226, 48 h, read-out: Activity
# [5] = Growth inhibition of human HCC2998 cells assessed as cell growth at 10 uM after 48 hrs by sulforhodamine B assay; format: functional; conditions: HCC 2998, 48 h, read-out: Activity
# [6] = test system: SK-MEL-28; test: Growth inhibition of human SK-MEL-28 cells assessed as cell growth at 10 uM after 48 hrs by sulforhodamine B assay; format: functional; conditions: SK-MEL-28, 48 h, read-out: Activity
# [7] = test system: T47D; test: Growth inhibition of human T47D cells assessed as cell growth at 10 uM after 48 hrs by sulforhodamine B assay; format: functional; conditions: read-out: Activity
# [8] = test system: MOLT-4; test: Growth inhibition of human MOLT4 cells assessed as cell growth at 10 uM after 48 hrs by sulforhodamine B assay; format: functional; conditions: MOLT-4, 48 h, read-out: Activity
# [9] = test system: MDA-MB-231; test: Growth inhibition of human MDA-MB-231 cells after 48 hrs by sulforhodamine B assay; format: functional; conditions: MDA-MB-231, 48 h
# [10] = test system: HOP-62; test: Growth inhibition of human HOP62 cells after 48 hrs by sulforhodamine B assay; format: functional; conditions: HOP-62, 48 h
# [11] = test system: A549; test: Growth inhibition of human A549/ATCC cells assessed as cell growth at 10 uM after 48 hrs by sulforhodamine B assay; format: functional; conditions: A549, 48 h, read-out: Activity
# [12] = test system: PC-3; test: Growth inhibition of human PC3 cells after 48 hrs by sulforhodamine B assay; format: functional, cell-based; conditions: PC-3, 48 h
# [13] = test system: HCT-15; test: Growth inhibition of human HCT15 cells assessed as cell growth at 10 uM after 48 hrs by sulforhodamine B assay; format: functional; conditions: HCT-15, 48 h, read-out: Activity
# [14] = test system: HOP-92; test: Growth inhibition of human HOP92 cells assessed as cell growth at 10 uM after 48 hrs by sulforhodamine B assay; format: functional; conditions: HOP-92, 48 h, read-out: Activity
# [15] = test system: SF-295; test: Growth inhibition of human SF295 cells after 48 hrs by sulforhodamine B assay; format: functional, cell-based; conditions: SF-295, 48 h
# [16] = test system: MDA-MB-468; test: Growth inhibition of human MDA-MB-468 cells assessed as cell growth at 10 uM after 48 hrs by sulforhodamine B assay; format: functional; conditions: MDA-MB-468, 48 h, read-out: Activity
# [17] = test system: HCT-116; test: Growth inhibition of human HCT116 cells after 48 hrs by sulforhodamine B assay; format: functional; conditions: HCT-116, 48 h
# [18] = test system: HL-60(TB); test: Growth inhibition of human HL-60(TB) cells assessed as cell growth at 10 uM after 48 hrs by sulforhodamine B assay; format: functional; conditions: HL-60, 48 h, read-out: Activity
# [19] = test system: MDA-MB-435; test: Growth inhibition of human MDA-MB-435 cells after 48 hrs by sulforhodamine B assay; format: functional, cell-based; conditions: MDA-MB-435, 48 h
# [20] = test system: Malme-3M; test: Growth inhibition of human MALME-3M cells after 48 hrs by sulforhodamine B assay; format: functional
# [21] = test system: SW-620; test: Growth inhibition of human SW620 cells assessed as cell growth at 10 uM after 48 hrs by sulforhodamine B assay; format: functional; conditions: SW-620, 48 h, read-out: Activity
# [22] = test system: MOLT-4; test: Growth inhibition of human MOLT4 cells after 48 hrs by sulforhodamine B assay; format: functional; conditions: MOLT-4, 48 h
# [23] = test system: MDA-MB-435; test: Growth inhibition of human MDA-MB-435 cells assessed as cell growth at 10 uM after 48 hrs by sulforhodamine B assay; format: functional; conditions: MDA-MB-435, 48 h, read-out: Activity
# [24] = test system: SN12C; test: Growth inhibition of human SN12C cells after 48 hrs by sulforhodamine B assay; format: functional
# [25] = Growth inhibition of human NCI-ADR-RES cells after 48 hrs by sulforhodamine B assay; format: functional
# [26] = Growth inhibition of human Hs 578T cells after 48 hrs by sulforhodamine B assay; format: functional
# [27] = test system: HCT-15; test: Growth inhibition of human HCT15 cells after 48 hrs by sulforhodamine B assay; format: functional; conditions: HCT-15, 48 h
# [28] = Growth inhibition of human NCI-ADR-RES cells assessed as cell growth at 10 uM after 48 hrs by sulforhodamine B assay; format: functional; conditions: read-out: Activity
# [29] = test system: CAKI-1; test: Growth inhibition of human CAKI-1 cells after 48 hrs by sulforhodamine B assay; format: functional; conditions: CAKI-1, 48 h
# [30] = test system: TK-10; test: Growth inhibition of human TK10 cells assessed as cell growth at 10 uM after 48 hrs by sulforhodamine B assay; format: functional; conditions: TK-10, 48 h, read-out: Activity
# [31] = test system: MDA-MB-231; test: Growth inhibition of human MDA-MB-231 cells assessed as cell growth at 10 uM after 48 hrs by sulforhodamine B assay; format: functional; conditions: MDA-MB-231, 48 h, read-out: Activity
# [32] = test system: TK-10; test: Growth inhibition of human TK10 cells after 48 hrs by sulforhodamine B assay; format: functional; conditions: TK-10, 48 h
# [33] = test system: COLO 205; test: Growth inhibition of human COLO205 cells after 48 hrs by sulforhodamine B assay; format: functional; conditions: COLO 205, 48 h
# [34] = test system: T47D; test: Growth inhibition of human T47D cells after 48 hrs by sulforhodamine B assay; format: functional
# [35] = read-out: LC50 (the source's name)
structure (smiles),measurement,setting,value
COc1cc(-c2nn(-c3cccc(NC(=O)c4ccc(N5CCOCC5)c(C(F)(F)F)c4)c3)cc2-c2ccncc2)ccc1Cl,GI50,[1],427 nM
same,TGI,[1],> 100000 nM
same,CC50,[1]; [35],> 100000 nM
same,growth at 10 µM,[2],-29.7%
same,growth at 10 µM,[3],-68.9%
same,growth at 10 µM,[4],8.3%
same,growth at 10 µM,[5],8.82%
same,growth at 10 µM,[6],28.4%
same,growth at 10 µM,[7],27.5%
same,growth at 10 µM,[8],4.07%
same,GI50,[9],299 nM
same,LC50,[9],> 100000 nM
same,TGI,[9],2390 nM
same,GI50,[10],583 nM
same,TGI,[10],> 100000 nM
same,CC50,[10]; [35],> 100000 nM
same,growth at 10 µM,[11],3.58%
same,GI50,[12],251 nM
same,IC50,[12],250 nM
same,TGI,[12],14700 nM
same,CC50,[12]; [35],> 100000 nM
same,growth at 10 µM,[13],16.7%
same,growth at 10 µM,[14],11.5%
same,GI50,[15],150 nM
same,IC50,[15],150 nM
same,TGI,[15],1150 nM
same,CC50,[15]; [35],6310 nM
same,growth at 10 µM,[16],-37.8%
same,GI50,[17],400 nM
same,TGI,[17],> 100000 nM
same,CC50,[17]; [35],> 100000 nM
same,growth at 10 µM,[18],-8.08%
same,GI50,[19],26.6 nM
same,IC50,[19],27 nM
same,TGI,[19],91.4 nM
same,CC50,[19]; [35],> 100000 nM
same,GI50,[20],129 nM
same,LC50 (concentration killing 50% of starting cells),[20],> 100000 nM
same,TGI,[20],5100 nM
same,growth at 10 µM,[21],25.2%
same,GI50,[22],669 nM
same,TGI,[22],> 100000 nM
same,CC50,[22]; [35],> 100000 nM
same,growth at 10 µM,[23],-35.1%
same,GI50,[24],1090 nM
same,TGI,[24],> 100000 nM
same,CC50,[24]; [35],> 100000 nM
same,GI50,[25],228 nM
same,TGI,[25],> 100000 nM
same,CC50,[25]; [35],> 100000 nM
same,GI50,[26],262 nM
same,TGI,[26],> 100000 nM
same,CC50,[26]; [35],> 100000 nM
same,GI50,[27],247 nM
same,LC50,[27],> 100000 nM
same,TGI,[27],> 100000 nM
same,growth at 10 µM,[28],-7.13%
same,GI50,[29],360 nM
same,TGI,[29],8120 nM
same,CC50,[29]; [35],> 100000 nM
same,growth at 10 µM,[30],17.8%
same,growth at 10 µM,[31],-25.2%
same,GI50,[32],1490 nM
same,TGI,[32],45300 nM
same,CC50,[32]; [35],> 100000 nM
same,GI50,[33],342 nM
same,LC50 (concentration killing 50% of cells),[33],4150 nM
same,TGI,[33],1150 nM
same,GI50,[34],686 nM
same,TGI,[34],> 100000 nM
same,CC50,[34]; [35],> 100000 nM
